# Tests used:
# [1] = system: total dead cells (totalDeadCells); experiment: MLTA, total dead cells concentration-response; assay type: cell-based; details: Homo sapiens, 144 h, 6 days, normalized to vehicle control, read-out: total_dead normalized cell count
# Method: (§1) A custom optimized cytokine cocktail was developed using commercially available cytokines (Peprotech, New Jersey) to facilitate simultaneous multi-lineage differentiation and self-renewal of freeze-thawed primary human bone marrow-derived CD34+ cells in SFEM II media (cells and media from StemCell Technologies, Vancouver). Cultures were carried out in ultra-low attachment 96-well plates (Corning, New York) with test article added on day 0 and cultured at 37°C, 85% relative humidity, and 5% CO2 for six days before interrogating drug impact via 17-parameter flow cytometry.
# (§2) The flow cytometry panel used to define hematopoietic subsets was composed of CD34-PECy7, CD90-PECY5, CD38-AF488, CD371-PE, CD45Ra-BV421, CD14-BV605, CD42b-AF647, CD10-PEDazzle594, CD235a-PerCPCy5.5 (BioLegend, California), CD15-BUV395, CD41a-APCH7, CD71-BV786 (BD Biosciences, California), and DAPI for dead cell exclusion (ThermoFisher, California). In short, Day 6 cells were harvested, FcR-blocked (FcR binding inhibitor, ThermoFisher), surface-stained, then analyzed in a buffer containing TruCount Control Beads using a BD LSR Fortessa SORP fitted with a high-throughput sampler (BD Biosciences, California). Data was analyzed in Diva 6.0.2 and exported to CSV where after all cell data was transformed to cell per mL then normalized on a per-donor basis to untreated control wells to determine drug impact.
# (§3) Donor material was collected and cultured as described above. The number of replicate donor samples per drug ranged from 2–7 and varied per drug (S1 Table). Drug treatment was added at time 0 and cells were maintained in culture for 6 days. Concentrations tested for each drug compound are contained in S1 Table. Concentrations were selected to span a range that is clinically useful. Following treatment, cell populations were measured using flow cytometry. We extracted cell counts from flow cytometry data, normalized to bead counts, and corrected for well volume.
# (§4) Each well was normalized to the average of six vehicle control wells. For drugs that were tested across multiple runs of the assay, vehicle-normalized donor data were pooled, and we used the average of these pooled data for further modeling. Normalized data used as model inputs are included in S1 Table.
# [2] = system: monocyte progenitors (monocyte prog); experiment: MLTA, MonoP: concentration-response and QSP model fit; assay type: cell-based, human; details: Homo sapiens, Monocyte, 144 h
# Method: as §1, §2, §3, §4
# (§5) We implemented drug effects using an Emax model for the drug’s effect on each cell type. The 13 maximum effect parameters (EmaxT,C) are unitless and can vary between 0 and 2 and where a subscript, C, represents one of the previously described 13 cell types. We adapted a traditional Emax model using the equations below. We interpreted EmaxT values less than or equal to one as anti-proliferative, and EmaxT values greater than one as indicating a cell-killing mechanism in addition to anti-proliferation. The relationships for these effects are included in the model using the following equations. Eq 2 describes the drug anti-proliferative effect in the net proliferation rate for a given cell type. Eq 3 describes the cell-killing EmaxCK effect.
# (§6) Towards the estimation of mechanistic parameters, we considered different formulations: (a) weighting the objective value to prioritize fitting dead cells and (b) using regularization methodology to encourage a parsimonious solution. We assessed the contributions of these formulations using mean-squared error and goodness of fit plots for drugs with known mechanisms. […] Further, we used L1 regularization to penalize parameters […] to help identify a parsimonious set of parameters to explain drug effects.
# [3] = system: neutrophils (neutrophil-lin); experiment: MLTA, Neut: concentration-response and QSP model fit; assay type: cell-based, human; details: Homo sapiens, Neutrophil, 144 h
# Method: as §1, §2, §3, §4, §5, §6
# monocytes (monocyte-lin) = experiment: MLTA, Mono: concentration-response and QSP model fit; assay type: cell-based, human; details: Homo sapiens, Monocyte, 144 h
# Method: as §1, §2, §3, §4, §5, §6
# [4] = system: late erythroid cells (Eryth II); experiment: MLTA, ErythII: concentration-response and QSP model fit; assay type: cell-based, human; details: Homo sapiens, 144 h
# Method: as §1, §2, §3, §4, §5, §6
# granulocytes (Gran-lin) = experiment: MLTA, Gran: concentration-response and QSP model fit; assay type: cell-based, human; details: Homo sapiens, 144 h
# Method: as §1, §2, §3, §4, §5, §6
# [5] = system: hematopoietic stem cells (HSCs); experiment: Multi-lineage toxicity assay (MLTA), HSCs: concentration-response and QSP model fit; assay type: cell-based, human; design: EmaxAP,HSC / EmaxT,HSC / Emax_drug_HSC: unitless, 0–2; ≤1 anti-proliferative, >1 adds cell killing
# Method: as §1, §2, §3, §4, §5, §6
# [6] = QSP model fit of 6-day MLTA data
smiles,measurement,setting,value
CCN1CCN(Cc2ccc(Nc3ncc(F)c(-c4cc(F)c5nc(C)n(C(C)C)c5c4)n3)nc2)CC1 [abemaciclib],activity at 0.0002 µM,[1]; dose 0.2 nM,92%
same,activity at 0.001 µM,[1]; dose 1 nM,97.6%
same,activity at 0.005 µM,[1]; dose 5 nM,87.1%
same,activity at 0.025 µM,[1]; dose 25 nM,46.8%
same,activity at 0.1 µM,[1]; dose 100 nM,30.9%
same,activity at 0.5 µM,[1]; dose 500 nM,22%
same,activity at 2.5 µM,[1]; dose 2500 nM,34%
same,activity at 0.0002 µM,"[2]; dose 0.2 nM, 6 days, normalized to vehicle control, read-out: MonoPs normalized cell count",98.7%
same,activity at 0.001 µM,"[2]; dose 1 nM, 6 days, normalized to vehicle control, read-out: MonoPs normalized cell count",99.4%
same,activity at 0.005 µM,"[2]; dose 5 nM, 6 days, normalized to vehicle control, read-out: MonoPs normalized cell count",80.6%
same,activity at 0.025 µM,"[2]; dose 25 nM, 6 days, normalized to vehicle control, read-out: MonoPs normalized cell count",27.5%
same,activity at 0.1 µM,"[2]; dose 100 nM, 6 days, normalized to vehicle control, read-out: MonoPs normalized cell count",8.19%
same,activity at 0.5 µM,"[2]; dose 500 nM, 6 days, normalized to vehicle control, read-out: MonoPs normalized cell count",1.58%
same,activity at 2.5 µM,"[2]; dose 2500 nM, 6 days, normalized to vehicle control, read-out: MonoPs normalized cell count",0.0911%
same,Emax,"[2]; parameter from QSP model fitting, read-out: Emax_drug_MonoP",0.17%
same,EC50,[3]; [6],66.2 nM
same,activity at 0.0002 µM,"[3]; dose 0.2 nM, 6 days, normalized to vehicle control, read-out: Neut normalized cell count",99.5%
same,activity at 0.001 µM,"[3]; dose 1 nM, 6 days, normalized to vehicle control, read-out: Neut normalized cell count",100%
same,activity at 0.005 µM,"[3]; dose 5 nM, 6 days, normalized to vehicle control, read-out: Neut normalized cell count",86.7%
same,activity at 0.025 µM,"[3]; dose 25 nM, 6 days, normalized to vehicle control, read-out: Neut normalized cell count",30.8%
same,activity at 0.1 µM,"[3]; dose 100 nM, 6 days, normalized to vehicle control, read-out: Neut normalized cell count",4.02%
same,activity at 0.5 µM,"[3]; dose 500 nM, 6 days, normalized to vehicle control, read-out: Neut normalized cell count",0.252%
same,activity at 2.5 µM,"[3]; dose 2500 nM, 6 days, normalized to vehicle control, read-out: Neut normalized cell count",0.0296%
same,Emax,"[3]; parameter from QSP model fitting, read-out: Emax_drug_Neut",23.5%
same,EC50,monocytes (monocyte-lin); [6],46.2 nM
same,activity at 0.0002 µM,"monocytes (monocyte-lin); dose 0.2 nM, 6 days, normalized to vehicle control, read-out: Mon normalized cell count",92.9%
same,activity at 0.001 µM,"monocytes (monocyte-lin); dose 1 nM, 6 days, normalized to vehicle control, read-out: Mon normalized cell count",109%
same,activity at 0.005 µM,"monocytes (monocyte-lin); dose 5 nM, 6 days, normalized to vehicle control, read-out: Mon normalized cell count",87%
same,activity at 0.025 µM,"monocytes (monocyte-lin); dose 25 nM, 6 days, normalized to vehicle control, read-out: Mon normalized cell count",41.8%
same,activity at 0.1 µM,"monocytes (monocyte-lin); dose 100 nM, 6 days, normalized to vehicle control, read-out: Mon normalized cell count",10.9%
same,activity at 0.5 µM,"monocytes (monocyte-lin); dose 500 nM, 6 days, normalized to vehicle control, read-out: Mon normalized cell count",3.74%
same,activity at 2.5 µM,"monocytes (monocyte-lin); dose 2500 nM, 6 days, normalized to vehicle control, read-out: Mon normalized cell count",0.588%
same,Emax,"monocytes (monocyte-lin); parameter from QSP model fitting, read-out: Emax_drug_Mono",23.1%
same,EC50,"[4]; QSP model fit of 6-day MLTA data, read-out: EC50ErythII",45.1 nM
same,activity at 0.0002 µM,"[4]; dose 0.2 nM, 6 days, normalized to vehicle control, read-out: ErythII normalized cell count",96.2%
same,activity at 0.001 µM,"[4]; dose 1 nM, 6 days, normalized to vehicle control, read-out: ErythII normalized cell count",112%
same,activity at 0.005 µM,"[4]; dose 5 nM, 6 days, normalized to vehicle control, read-out: ErythII normalized cell count",106%
same,activity at 0.025 µM,"[4]; dose 25 nM, 6 days, normalized to vehicle control, read-out: ErythII normalized cell count",57.9%
same,activity at 0.1 µM,"[4]; dose 100 nM, 6 days, normalized to vehicle control, read-out: ErythII normalized cell count",20.4%
same,activity at 0.5 µM,"[4]; dose 500 nM, 6 days, normalized to vehicle control, read-out: ErythII normalized cell count",1.77%
same,activity at 2.5 µM,"[4]; dose 2500 nM, 6 days, normalized to vehicle control, read-out: ErythII normalized cell count",0.0231%
same,Emax,"[4]; parameter from QSP model fitting, read-out: Emax_drug_ErythroidII",3.33%
same,activity at 0.0002 µM,"granulocytes (Gran-lin); dose 0.2 nM, 6 days, normalized to vehicle control, read-out: Gran normalized cell count",101%
same,activity at 0.001 µM,"granulocytes (Gran-lin); dose 1 nM, 6 days, normalized to vehicle control, read-out: Gran normalized cell count",107%
same,activity at 0.005 µM,"granulocytes (Gran-lin); dose 5 nM, 6 days, normalized to vehicle control, read-out: Gran normalized cell count",91.3%
same,activity at 0.025 µM,"granulocytes (Gran-lin); dose 25 nM, 6 days, normalized to vehicle control, read-out: Gran normalized cell count",34.6%
same,activity at 0.1 µM,"granulocytes (Gran-lin); dose 100 nM, 6 days, normalized to vehicle control, read-out: Gran normalized cell count",9.12%
same,activity at 0.5 µM,"granulocytes (Gran-lin); dose 500 nM, 6 days, normalized to vehicle control, read-out: Gran normalized cell count",1.99%
same,activity at 2.5 µM,"granulocytes (Gran-lin); dose 2500 nM, 6 days, normalized to vehicle control, read-out: Gran normalized cell count",0.0882%
same,Emax,"granulocytes (Gran-lin); parameter from QSP model fitting, read-out: Emax_drug_Gran",0.16%
same,EC50,"[5]; Homo sapiens, Hematopoietic stem cell, 144 h, QSP model fit of 6-day MLTA data",111 nM
same,activity at 0.0002 µM,"[5]; Homo sapiens, Hematopoietic stem cell, 144 h, dose 0.2 nM, 6 days, normalized to vehicle control, read-out: HSCs normalized cell count",89.3%
same,activity at 0.001 µM,"[5]; Homo sapiens, Hematopoietic stem cell, 144 h, dose 1 nM, 6 days, normalized to vehicle control, read-out: HSCs normalized cell count",103%
same,activity at 0.005 µM,"[5]; Homo sapiens, Hematopoietic stem cell, 144 h, dose 5 nM, 6 days, normalized to vehicle control, read-out: HSCs normalized cell count",98.4%
same,activity at 0.025 µM,"[5]; Homo sapiens, Hematopoietic stem cell, 144 h, dose 25 nM, 6 days, normalized to vehicle control, read-out: HSCs normalized cell count",66.7%
same,activity at 0.1 µM,"[5]; Homo sapiens, Hematopoietic stem cell, 144 h, dose 100 nM, 6 days, normalized to vehicle control, read-out: HSCs normalized cell count",25.9%
same,activity at 0.5 µM,"[5]; Homo sapiens, Hematopoietic stem cell, 144 h, dose 500 nM, 6 days, normalized to vehicle control, read-out: HSCs normalized cell count",5.33%
same,activity at 2.5 µM,"[5]; Homo sapiens, Hematopoietic stem cell, 144 h, dose 2500 nM, 6 days, normalized to vehicle control, read-out: HSCs normalized cell count",2.74%
same,Emax,"[5]; Homo sapiens, Hematopoietic stem cell, 144 h, parameter from QSP model fitting, read-out: Emax_drug_HSC",91%
same,"EmaxAP,HSC","[5]; anti-proliferation component, min(1, EmaxT)",0.910

# Reference: publication PMC7402526, “An in vitro quantitative systems pharmacology approach for deconvolving mechanisms of drug-induced, multilineage cytopenias” (PLoS Computational Biology, 2020)
